Data: patent publication US20220064138A1, “MACROLIDE BREFELDIN A ESTER DERIVATIVES AND USE THEREOF” (OCEAN UNIVERSITY OF CHINA, priority 2019, published 2022)
pIC50: −log10 of the molar value.

Tests used:
Assay in all cases: Cell proliferation assay (CCK-8)
Assay type in all cases: cell-based
[1] = system: Human cervical cancer Hela cells; settings: 72 h
Source text: (§1) CCK-8 method: The CCK-8 method is a highly sensitive, non-radioactive colorimetric assay for the determination of the number of viable cells in cell proliferation or cytotoxicity assays. The orange formazan dye produced by the bioreduction of CCK-8 by intracellular dehydrogenase is soluble in the cell culture medium, and the amount of formazan dye produced is proportional to the number of living cells. The kit used in this method is the tetrazolium salt-WST-8 (2-(2-methoxy-4-nitrophenyl)-3-(4-nitrophenyl)-5-(2,4-disulfophenyl)-2H-tetrazolium monosodium salt) developed by Dojindo Chemical Research Institute (Dojindo), which is capable of being reduced to a water-soluble formazan dye in the presence of the electronic carrier 1-Methoxy PMS.
(§2) Human cervical cancer Hela cells, pancreatic cancer PANC-1 cells, esophageal cancer Eca-109 cells, human leukemia K562 cells, human lung cancer A549 cells, human liver cancer HepG2 cells, human gastric cancer MKN-45 cells, human breast cancer MCF7 cells were cultured in DMEM medium containing 10% FBS (fetal bovine serum), 100 U/mL penicillin and 100 μg/ml streptomycin. Hepatocellular carcinoma cells Bel-7402 were cultured in RPMI-1640 medium containing 10% FBS (fetal bovine serum), 100 U/ml penicillin and 100 μg/ml streptomycin. All cells were placed in a cell culture incubator at 37° C. with 5% CO2. Cells fluid was changed every 3-5 days, and after 80% cell fusion, trypsin digestion and passaging were performed to keep the cells in good logarithmic growth phase.
(§3) All the samples to be tested were dissolved in DMSO.
(§4) Cells in logarithmic growth phase were inoculated in 96-well plates with 5000 cells/well respectively, and after 24 h of incubation, samples were added (final concentrations as shown in the table), and biplicate wells were set up for each sample. The amount of solvent of DMSO was not higher than 2‰. After 72 h, 10 μL of CCK-8 solution was added to each well and incubated for 1.5˜3 h at 37° C. The OD value at 450 nm was measured on an plate reader.
(§5) Inhibition rate (%)=(1−[(OD450 dosed well−OD450 blank well)/(OD450 control well−OD450 blank well)])×100%
(§6) The fitted IC50 values were calculated using the log (inhibitor) vs. response-Variable slop analysis method in GraphPad Prism software.

[2] = system: esophageal cancer Eca-109 cells; settings: Homo sapiens, Eca-109, 72 h
Source text: as §1, §2, §3, §4, §5, §6

[3] = system: human breast cancer MCF7 cells; settings: MCF7, 72 h
Source text: as §1, §2, §3, §4, §5, §6

[4] = system: human gastric cancer MKN-45 cells; settings: MKN-45, 72 h
Source text: as §1, §2, §3, §4, §5, §6

[5] = system: human leukemia K562 cells; settings: K562, 72 h
Source text: as §1, §2, §3, §4, §5, §6

[6] = system: human liver cancer HepG2 cells; settings: HepG2, 72 h
Source text: as §1, §2, §3, §4, §5, §6

[7] = system: human lung cancer A549 cells; settings: A549, 72 h
Source text: as §1, §2, §3, §4, §5, §6

[8] = system: pancreatic cancer PANC-1 cells; settings: Homo sapiens, PANC-1, 72 h
Source text: as §1, §2, §3, §4, §5, §6

Structure (SMILES)	pIC50 [1]	pIC50 [2]	pIC50 [3]	pIC50 [4]	pIC50 [5]	pIC50 [6]	pIC50 [7]	pIC50 [8]
C[C@H]1CCC/C=C/[C@@H]2C[C@H](OC(=O)/C=C/c3ccccc3F)C[C@H]2[C@H](O)/C=C/C(=O)O1 [Compound 2a, 7-O-(2-fluorocinnamic acid)acyl BFA]	5.00 to 6.00	5.00 to 6.00	6.00 to 7.00	6.00 to 7.00	6.00 to 7.00	6.00 to 7.00	6.00 to 7.00	6.00 to 7.00
C[C@H]1CCC/C=C/[C@@H]2C[C@H](O)C[C@H]2[C@H](OC(=O)/C=C/c2ccccc2F)/C=C/C(=O)O1 [Compound 2b, 4-O-(2-fluorocinnamic acid)acyl BFA]	5.00 to 6.00	5.00 to 6.00	6.00 to 7.00	6.00 to 7.00	6.00 to 7.00	6.00 to 7.00	6.00 to 7.00	6.00 to 7.00
C[C@H]1CCC/C=C/[C@@H]2C[C@H](OC(=O)/C=C/c3ccccc3F)C[C@H]2[C@H](OC(=O)/C=C/c2ccccc2F)/C=C/C(=O)O1 [Compound 2c, 4,7-O-bis(2-fluorocinnamic acid)acyl BFA]	5.00 to 6.00	5.00 to 6.00	5.00 to 6.00	6.00 to 7.00	6.00 to 7.00	5.00 to 6.00	5.00 to 6.00	5.00 to 6.00
C[C@H]1CCC/C=C/[C@@H]2C[C@H](OC(=O)/C=C/c3ccc(F)cc3)C[C@H]2[C@H](O)/C=C/C(=O)O1 [Compound 3a, 7-O-(4-fluorocinnamic acid)acyl BFA]	5.00 to 6.00	5.00 to 6.00	6.00 to 7.00	6.00 to 7.00	6.00 to 7.00	6.00 to 7.00	6.00 to 7.00	6.00 to 7.00
C[C@H]1CCC/C=C/[C@@H]2C[C@H](O)C[C@H]2[C@H](OC(=O)/C=C/c2ccc(F)cc2)/C=C/C(=O)O1 [Compound 3b, 4-O-(4-fluorocinnamic acid)acyl BFA]	6.00 to 7.00	5.00 to 6.00	6.00 to 7.00	6.00 to 7.00	6.00 to 7.00	6.00 to 7.00	6.00 to 7.00	6.00 to 7.00
C[C@H]1CCC/C=C/[C@@H]2C[C@H](OC(=O)/C=C/c3ccc(F)cc3)C[C@H]2[C@H](OC(=O)/C=C/c2ccc(F)cc2)/C=C/C(=O)O1 [Compound 3c, 4,7-O-bis(4-fluorocinnamic acid)acyl BFA]	5.00 to 6.00	5.00 to 6.00	5.00 to 6.00	5.00 to 6.00	5.00 to 6.00	5.00 to 6.00	6.00 to 7.00	6.00 to 7.00
C[C@H]1CCC/C=C/[C@@H]2C[C@H](OC(=O)/C=C/c3ccccc3Br)C[C@H]2[C@H](O)/C=C/C(=O)O1 [Compound 4a, 7-O-(2-bromocinnamic acid)acyl BFA]	6.00 to 7.00	6.00 to 7.00	6.00 to 7.00	6.00 to 7.00	6.00 to 7.00	6.00 to 7.00	6.00 to 7.00	6.00 to 7.00
C[C@H]1CCC/C=C/[C@@H]2C[C@H](O)C[C@H]2[C@H](OC(=O)/C=C/c2ccccc2Br)/C=C/C(=O)O1 [Compound 4b, 4-O-(2-bromocinnamic acid)acyl BFA]	6.00 to 7.00	6.00 to 7.00	6.00 to 7.00	6.00 to 7.00	6.00 to 7.00	6.00 to 7.00	6.00 to 7.00	6.00 to 7.00
C[C@H]1CCC/C=C/[C@@H]2C[C@H](OC(=O)/C=C/c3ccccc3Br)C[C@H]2[C@H](OC(=O)/C=C/c2ccccc2Br)/C=C/C(=O)O1 [Compound 4c, 4,7-O-bis(2-bromocinnamic acid)acyl BFA]	6.00 to 7.00	5.00 to 6.00	5.00 to 6.00	6.00 to 7.00	5.00 to 6.00	5.00 to 6.00	6.00 to 7.00	5.00 to 6.00
C[C@H]1CCC/C=C/[C@@H]2C[C@H](OC(=O)/C=C/c3cccc(Cl)c3)C[C@H]2[C@H](O)/C=C/C(=O)O1 [Compound 5a, 7-O-(3-chlorocinnamic acid)acyl BFA]	6.00 to 7.00	5.00 to 6.00	6.00 to 7.00	6.00 to 7.00	6.00 to 7.00	6.00 to 7.00	6.00 to 7.00	6.00 to 7.00
C[C@H]1CCC/C=C/[C@@H]2C[C@H](O)C[C@H]2[C@H](OC(=O)/C=C/c2cccc(Cl)c2)/C=C/C(=O)O1 [Compound 5b, 4-O-(3-chlorocinnamic acid)acyl BFA]	6.00 to 7.00	6.00 to 7.00	6.00 to 7.00	6.00 to 7.00	6.00 to 7.00	6.00 to 7.00	6.00 to 7.00	6.00 to 7.00
C[C@H]1CCC/C=C/[C@@H]2C[C@H](OC(=O)/C=C/c3cccc(Cl)c3)C[C@H]2[C@H](OC(=O)/C=C/c2cccc(Cl)c2)/C=C/C(=O)O1 [Compound 5c, 4,7-O-bis(3-chlorocinnamic acid)acyl BFA]	6.00 to 7.00	5.00 to 6.00	5.00 to 6.00	6.00 to 7.00	5.00 to 6.00	5.00 to 6.00	6.00 to 7.00	5.00 to 6.00
Cc1cccc(/C=C/C(=O)O[C@@H]2C[C@H]3[C@H](O)/C=C/C(=O)O[C@@H](C)CCC/C=C/[C@@H]3C2)c1 [Compound 6a, 7-O-(3-methylcinnamic acid)acyl BFA]	5.00 to 6.00	6.00 to 7.00	6.00 to 7.00	6.00 to 7.00	6.00 to 7.00	5.00 to 6.00	6.00 to 7.00	6.00 to 7.00
Cc1cccc(/C=C/C(=O)O[C@@H]2/C=C/C(=O)O[C@@H](C)CCC/C=C/[C@@H]3C[C@H](O)C[C@H]32)c1 [Compound 6b, 4-O-(3-methylcinnamic acid)acyl BFA]	6.00 to 7.00	6.00 to 7.00	6.00 to 7.00	6.00 to 7.00	6.00 to 7.00	6.00 to 7.00	6.00 to 7.00	6.00 to 7.00
Cc1cccc(/C=C/C(=O)O[C@@H]2C[C@@H]3[C@H](/C=C/CCC[C@H](C)OC(=O)/C=C/[C@H]3OC(=O)/C=C/c3cccc(C)c3)C2)c1 [Compound 6c, 4,7-O-bis(3-methylcinnamic acid)acyl BFA]	5.00 to 6.00	6.00 to 7.00	5.00 to 6.00	6.00 to 7.00	5.00 to 6.00	5.00 to 6.00	5.00 to 6.00	5.00 to 6.00
Cc1ccc(/C=C/C(=O)O[C@@H]2C[C@H]3[C@H](O)/C=C/C(=O)O[C@@H](C)CCC/C=C/[C@@H]3C2)cc1 [Compound 7a, 7-O-(4-methylcinnamic acid)acyl BFA]	5.00 to 6.00	5.00 to 6.00	5.00 to 6.00	6.00 to 7.00	5.00 to 6.00	5.00 to 6.00	6.00 to 7.00	6.00 to 7.00
Cc1ccc(/C=C/C(=O)O[C@@H]2/C=C/C(=O)O[C@@H](C)CCC/C=C/[C@@H]3C[C@H](O)C[C@H]32)cc1 [Compound 7b, 4-O-(4-methylcinnamic acid)acyl BFA]	5.00 to 6.00	6.00 to 7.00	6.00 to 7.00	6.00 to 7.00	5.00 to 6.00	6.00 to 7.00	6.00 to 7.00	6.00 to 7.00
Cc1ccc(/C=C/C(=O)O[C@@H]2C[C@@H]3[C@H](/C=C/CCC[C@H](C)OC(=O)/C=C/[C@H]3OC(=O)/C=C/c3ccc(C)cc3)C2)cc1 [Compound 7c, 4,7-O-bis(4-methylcinnamic acid)acyl BFA]	5.00 to 6.00	6.00 to 7.00	5.00 to 6.00	6.00 to 7.00	5.00 to 6.00	5.00 to 6.00	5.00 to 6.00	5.00 to 6.00
Cc1ccccc1/C=C/C(=O)O[C@@H]1C[C@H]2[C@H](O)/C=C/C(=O)O[C@@H](C)CCC/C=C/[C@@H]2C1 [Compound 8a, 7-O-(2-methylcinnamic acid)acyl BFA]	5.00 to 6.00	6.00 to 7.00	6.00 to 7.00	6.00 to 7.00	5.00 to 6.00	5.00 to 6.00	6.00 to 7.00	6.00 to 7.00
Cc1ccccc1/C=C/C(=O)O[C@@H]1/C=C/C(=O)O[C@@H](C)CCC/C=C/[C@@H]2C[C@H](O)C[C@H]21 [Compound 8b, 4-O-(2-methylcinnamic acid)acyl BFA]	5.00 to 6.00	6.00 to 7.00	6.00 to 7.00	6.00 to 7.00	5.00 to 6.00	6.00 to 7.00	6.00 to 7.00	6.00 to 7.00
